The target of the assay is T1, EGFR (L858R & T790M) (Homo sapiens, UniProt P00533, L858R/T790M).
T1 construct: GST; purchased Proqinase
The assay is described as follows: EGFR (L858R & T790M) inhibition assay, HTRF method. The following applies: biochemical HTRF; EGFR (T790M/L858R) 2.5 nM, ATP 5 μM, 60 min room temperature. Here is the method: Example 25: Biological Activity: EGFR T790M Assay Protocol
The objective of the experiment is to find the IC50 for the compounds using HTRF method.
Reagents for Enzyme Assay:
1. Enzyme Assay Buffer: 60 mM HEPES (pH 7.4), 50 mM NaCl, 20 mM MgCl2, 5 mM MnCl2, filter using 0.2 µm pore size, store at 4° C.
Supplements (add fresh to the enzyme buffer): Make 1M DTT stock, 5% BSA stock and 0.1M Na3OV4 stored at 4° C. Enzyme assay buffer 50 ml, 1 M DTT 100 μl, 5% BSA 500 μl, 0.1M Na3OV4 50 μl.
2. GST-hEGFR (L858R), active: EGFR (T790M/L858R), active (Proqinase), 3.6 μM stock; 2.5 nM in final assay.
3. Gastrin Precusor-Biotinylated: Gastrin precursor (Tyr87) biotinylated peptide (EEAY*GWM), Cell Signaling Tech 1310, Lot-7, Want final 0.5 μM in assay
4. ATP: 10 mM stock in 100 μl Enzyme assay buffer pH 7.4 prepared freshly, want 5 μM in final assay.
5. Test compounds: Dissolve powders in 100% DMSO to a final stock concentration of 10 mM (volume in μL to add for 10 mM=mg powder×10^5/MW). Final comp concentration in the assay plate is starting at 10 μM.
1. HTRF buffer: 50 mM Tris-HCl, pH-7.5, 100 mM NaCl, 0.1% BSA, 0.05% Tween20, 0.5 mM EDTA, filter using 0.2 µm pore size, store at 4° C.
Phycolink® Streptavidin-Allophycocyanin (SA-APC) Prozyme, Cat. #PJ25S, Lot #896 085, 2.06 mg/mL, APC concentration is 11.6 μM, streptavidin concentration is 15.5 μM. Want 12 nM final in assay (based on streptavidin concentration).
2. Europium-W1024-PT-66 Anti Phospho Tyrosine Antibody: Perkin Elmer (AD0068), monoclonal IgG1 that recognizes phospho tyrosine peptide 100 μg/ml stock. Want 0.1 nM final in assay.
• 1. Make the compound dilution by TECAN as per the above scheme. • 2. Add 16 μl of diluted compound to the assay plate by using TECAN • 3. Add 10 μl of enzyme mix to each well except mins. • 4. Add 20 μl of substrate and ATP mix into each well of the assay plate manually. • 5. Incubate the plate at room temperature for 60 min with shaking. • 6. Meanwhile prepare the HTRF mix and add 75 μl to the HTRF plate. • 7. When the incubation is over, transfer 10 μl of the reaction mixture to the HTRF assay plate and incubate for 30 min at room temperature with shaking. • 8. Take the reading in Pherastar (ext 337 nm, em 665 & 620 nm). • 9. Analyze the results using Graphpad prism after calculation the z factor, signal window and % inhibition to get the IC50.
Compounds having IC50<10 nM are designated as “A”; 10-100 nM are designated as “B”; and >100 nM as “C”.

Results on 27 compounds are retold here after patent publication US10273224B2, “Substituted pyrimidine compounds, compositions and medicinal applications thereof” (JUBILANT BIOSYS LIMITED, priority 2013, dated 2019).

Each structure is given as a SMILES string. pIC50: −log10 of the molar value.

T1 sequence (P00533 25-1210 T790M/L858R): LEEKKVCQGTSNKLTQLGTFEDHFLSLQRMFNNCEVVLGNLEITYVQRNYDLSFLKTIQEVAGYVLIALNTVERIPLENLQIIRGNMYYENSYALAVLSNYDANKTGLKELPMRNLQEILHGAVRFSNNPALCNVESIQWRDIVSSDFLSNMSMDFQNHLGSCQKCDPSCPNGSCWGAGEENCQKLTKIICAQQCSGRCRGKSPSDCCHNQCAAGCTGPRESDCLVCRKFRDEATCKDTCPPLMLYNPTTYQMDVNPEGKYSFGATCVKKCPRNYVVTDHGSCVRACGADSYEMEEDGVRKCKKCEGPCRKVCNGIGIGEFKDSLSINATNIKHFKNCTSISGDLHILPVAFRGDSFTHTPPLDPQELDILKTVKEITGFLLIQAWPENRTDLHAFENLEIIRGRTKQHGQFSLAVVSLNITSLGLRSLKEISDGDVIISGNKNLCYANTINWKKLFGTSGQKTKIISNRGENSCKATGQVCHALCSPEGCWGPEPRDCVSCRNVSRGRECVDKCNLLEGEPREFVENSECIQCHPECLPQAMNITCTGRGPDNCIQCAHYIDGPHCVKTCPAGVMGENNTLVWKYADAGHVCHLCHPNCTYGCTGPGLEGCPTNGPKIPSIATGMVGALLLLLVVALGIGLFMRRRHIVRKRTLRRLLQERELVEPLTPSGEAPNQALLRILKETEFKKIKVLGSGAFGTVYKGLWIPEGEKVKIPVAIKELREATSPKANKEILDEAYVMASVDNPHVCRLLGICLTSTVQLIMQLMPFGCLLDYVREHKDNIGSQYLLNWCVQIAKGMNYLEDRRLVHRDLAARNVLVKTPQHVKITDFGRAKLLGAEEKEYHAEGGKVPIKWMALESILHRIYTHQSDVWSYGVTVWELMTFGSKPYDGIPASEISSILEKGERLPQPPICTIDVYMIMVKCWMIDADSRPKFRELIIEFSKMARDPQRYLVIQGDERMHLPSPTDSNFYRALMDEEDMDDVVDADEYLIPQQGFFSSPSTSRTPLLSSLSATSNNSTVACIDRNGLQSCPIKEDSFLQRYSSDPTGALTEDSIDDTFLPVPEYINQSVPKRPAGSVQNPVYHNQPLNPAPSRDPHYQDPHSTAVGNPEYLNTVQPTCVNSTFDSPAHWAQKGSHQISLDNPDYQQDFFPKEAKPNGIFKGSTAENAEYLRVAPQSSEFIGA

With `C=CC(=O)N1CCC(Nc2nc(Nc3cnn(C)c3)ncc2Cl)C1` (racemic) [II-7 (Racemic), 1-(3-((5-chloro-2-((1-methyl-1H-pyrazol-4-yl)amino)pyrimidin-4-yl)amino)pyrrolidin-1-yl)prop-2-en-1-one], the negative-log IC50 (pIC50) is less than 7.00.

Consider `C=CC(=O)Nc1ccc(F)c(Nc2nc(Nc3cn(C)nc3C)ncc2Cl)c1` (single isomer, unassigned) [Compound I-70, N-(3-((5-chloro-2-((1,3-dimethyl-1H-pyrazol-4-yl)amino)pyrimidin-4-yl)amino)-4-fluorophenyl)acrylamide], for which the negative-log IC50 (pIC50) is greater than 8.00.

In the case of `C=CC(=O)Nc1cccc(Nc2nc(Nc3cn(C)nc3C)ncc2Cl)n1` (single isomer, unassigned) [Compound I-73, N-(6-((5-chloro-2-((1,3-dimethyl-1H-pyrazol-4-yl)amino)pyrimidin-4-yl)amino)pyridin-2-yl)acrylamide], the negative logarithm of the IC50 (pIC50) is 7.00 to 8.00.

Take `C=CC(=O)Nc1cccc(Nc2nc(Nc3cnn(C)c3C)ncc2Cl)n1` (single isomer, unassigned) [Compound I-74, N-(6-((5-chloro-2-((1,5-dimethyl-1H-pyrazol-4-yl)amino)pyrimidin-4-yl)amino)pyridin-2-yl)acrylamide]: the pIC50 is less than 7.00.

With `C=CC(=O)NC1CCCC(Oc2nc(Nc3cnn(C)c3)ncc2Cl)C1` (single isomer, unassigned) [I-88 (Isomer 1), N-(3-((5-chloro-2-((1-methyl-1H-pyrazol-4-yl)amino)pyrimidin-4-yl)oxy)cyclohexyl)acrylamide], the negative-log IC50 (pIC50) is less than 7.00.

As for `C=CC(=O)NC1CCCC(Oc2nc(Nc3cnn(C)c3)ncc2Cl)C1` (single isomer, unassigned) [I-89 (Isomer 2), N-(3-((5-chloro-2-((1-methyl-1H-pyrazol-4-yl)amino)pyrimidin-4-yl)oxy)cyclohexyl)acrylamide], the negative-log IC50 (pIC50) is less than 7.00.

`CN(C)C/C=C/C(=O)NC1CCCC(Oc2nc(Nc3cnn(C)c3)ncc2Cl)C1` (single isomer, unassigned) [I-90 (Isomer 1), (E)-N-(3-((5-chloro-2-((1-methyl-1H-pyrazol-4-yl)amino)pyrimidin-4-yl)oxy)cyclohexyl)-4-(dimethylamino)but-2-enamide]: the pIC50 was less than 7.00.

Take `CN(C)C/C=C/C(=O)NC1CCCC(Oc2nc(Nc3cnn(C)c3)ncc2Cl)C1` (single isomer, unassigned) [I-91 (Isomer 2), (E)-N-(3-((5-chloro-2-((1-methyl-1H-pyrazol-4-yl)amino)pyrimidin-4-yl)oxy)cyclohexyl)-4-(dimethylamino)but-2-enamide]: the pIC50 was less than 7.00.

For the compound `CN(C)C/C=C/C(=O)N[C@@H]1CCC[C@@H](CNc2nc(Nc3cnn(C)c3)ncc2Cl)C1` (single isomer, unassigned) [I-102 (diastereomer 1)], the negative logarithm of the IC50 (pIC50) was less than 7.00.

Turning to `CN(C)C/C=C/C(=O)N[C@H]1CCC[C@H](CNc2nc(Nc3cnn(C)c3)ncc2Cl)C1` (single isomer, unassigned) [I-103 (diastereomer 2)], the pIC50 was less than 7.00.

In the case of `C=CC(=O)N[C@H]1CCC[C@@H](Nc2nc(Nc3cnn(C)c3)ncc2Cl)C1` (single isomer, unassigned) [I-104 (Enantiomer 3)], the negative logarithm of the IC50 (pIC50) was 7.00 to 8.00.

As to `C=CC(=O)N[C@@H]1CCC[C@H](Nc2nc(Nc3cnn(C)c3)ncc2Cl)C1` (single isomer, unassigned) [I-105 (Enantiomer 4)], the pIC50 is less than 7.00.

For `C=CC(=O)N[C@@H]1CCC[C@@H](Nc2nc(Nc3cnn(C)c3)ncc2Cl)C1` (single isomer, unassigned) [I-106 (Enantiomer 1)], the negative-log IC50 (pIC50) was less than 7.00.

On to `C=CC(=O)N[C@H]1CCC[C@H](Nc2nc(Nc3cnn(C)c3)ncc2Cl)C1` (single isomer, unassigned) [I-107 (Enantiomer 2)], for which the pIC50 was less than 7.00.

Regarding `C=CC(=O)N[C@H]1CCCC[C@@H](Nc2nc(Nc3cnn(C)c3)ncc2Cl)C1` (single isomer, unassigned) [I-112 (Isomer 1)], the pIC50 is less than 7.00.

As for `C=CC(=O)N[C@@H]1CCCC[C@H](Nc2nc(Nc3cnn(C)c3)ncc2Cl)C1` (single isomer, unassigned) [I-113 (Isomer 2)], the negative logarithm of the IC50 (pIC50) was 7.00 to 8.00.

Turning to `C=CC(=O)N1CCCC(Nc2nc(Nc3cnn(C)c3)ncc2Cl)C1` (single isomer, unassigned) [II-1 (Enantiomer 1), 1-(3-((5-chloro-2-((1-methyl-1H-pyrazol-4-yl)amino)pyrimidin-4-yl)amino)piperidin-1-yl)prop-2-en-1-one], the negative logarithm of the IC50 (pIC50) was less than 7.00.

For the compound `C=CC(=O)N1CCCC(Nc2nc(Nc3cnn(C)c3)ncc2Cl)C1` (single isomer, unassigned) [II-2 (Enantiomer 2), 1-(3-((5-chloro-2-((1-methyl-1H-pyrazol-4-yl)amino)pyrimidin-4-yl)amino)piperidin-1-yl)prop-2-en-1-one], the pIC50 was less than 7.00.

Turning to `CN(C)C/C=C/C(=O)N1CCCC(Nc2nc(Nc3cnn(C)c3)ncc2Cl)C1` (single isomer, unassigned) [II-3 (Enantiomer 1), (E)-1-(3-((5-chloro-2-((1-methyl-1H-pyrazol-4-yl)amino)pyrimidin-4-yl)amino)piperidin-1-yl)-4-(dimethylamino)but-2-en-1-one], the negative-log IC50 (pIC50) is less than 7.00.

For the compound `CN(C)C/C=C/C(=O)N1CCCC(Nc2nc(Nc3cnn(C)c3)ncc2Cl)C1` (single isomer, unassigned) [II-4 (Enantiomer 2), (E)-1-(3-((5-chloro-2-((1-methyl-1H-pyrazol-4-yl)amino)pyrimidin-4-yl)amino)piperidin-1-yl)-4-(dimethylamino)but-2-en-1-one], the negative logarithm of the IC50 (pIC50) is less than 7.00.

Turning to `C=CC(=O)N1CCCC(Nc2nc(Nc3cnn(C4CCC4)c3)ncc2Cl)C1` (single isomer, unassigned) [II-5 (Enantiomer 1), 1-(3-((5-chloro-2-((1-cyclobutyl-1H-pyrazol-4-yl)amino)pyrimidin-4-yl)amino)piperidin-1-yl)prop-2-en-1-one], the negative logarithm of the IC50 (pIC50) was less than 7.00.

With `C=CC(=O)N1CCCC(Nc2nc(Nc3cnn(C4CCC4)c3)ncc2Cl)C1` (single isomer, unassigned) [II-6 (Enantiomer 2), 1-(3-((5-chloro-2-((1-cyclobutyl-1H-pyrazol-4-yl)amino)pyrimidin-4-yl)amino)piperidin-1-yl)prop-2-en-1-one], the pIC50 is less than 7.00.

In the case of `C=CC(=O)N1CCC(Oc2nc(Nc3cnn(C)c3)ncc2Cl)C1` (single isomer, unassigned) [II-10 (Enantiomer 1), 1-(3-((5-chloro-2-((1-methyl-1H-pyrazol-4-yl)amino)pyrimidin-4-yl)oxy)pyrrolidin-1-yl)prop-2-en-1-one], the pIC50 was less than 7.00.

For the compound `C=CC(=O)N1CCC(Oc2nc(Nc3cnn(C)c3)ncc2Cl)C1` (single isomer, unassigned) [II-11 (Enantiomer 2), 1-(3-((5-chloro-2-((1-methyl-1H-pyrazol-4-yl)amino)pyrimidin-4-yl)oxy)pyrrolidin-1-yl)prop-2-en-1-one], the negative-log IC50 (pIC50) is less than 7.00.

In the case of `C=CC(=O)N1CCCC(Oc2nc(Nc3cnn(C)c3)ncc2Cl)C1` (single isomer, unassigned) [II-12 (Enantiomer 1), 1-(3-((5-chloro-2-((1-methyl-1H-pyrazol-4-yl)amino)pyrimidin-4-yl)oxy)piperidin-1-yl)prop-2-en-1-one], the negative logarithm of the IC50 (pIC50) was less than 7.00.

In the case of `C=CC(=O)N1CCCC(Oc2nc(Nc3cnn(C)c3)ncc2Cl)C1` (single isomer, unassigned) [II-13 (Enantiomer 2), 1-(3-((5-chloro-2-((1-methyl-1H-pyrazol-4-yl)amino)pyrimidin-4-yl)oxy)piperidin-1-yl)prop-2-en-1-one], the negative logarithm of the IC50 (pIC50) was less than 7.00.

As for `C=CC(=O)Nc1cccc(Nc2nc(Nc3cnn(C4CCN(C)CC4)c3)ncc2Cl)c1` [Compound I-1, N-(3-((5-chloro-2-((1-(1-methylpiperidin-4-yl)-1H-pyrazol-4-yl)amino)pyrimidin-4-yl)amino)phenyl)acrylamide], the negative-log IC50 (pIC50) was greater than 8.00.
